In patent US20160287536A1, “Composition” (THE UNIVERSITY OF NOTTINGHAM, priority 2013, published 2016):
Like-named read-outs stand apart in the source and are kept apart here. Each block holds one compound with its values, some of them ahead of it.

How the values were obtained:
[1] = test system: nitric oxide synthase; settings: 100 μM; cited from earlier work
[2] = test system: vascular preparations; settings: 100 μM; cited from earlier work
[3] = test system: sheep isolated rectal vein; assay: Wire myography, sheep isolated rectal vein (SRV); assay type: cell-based; settings: SRV
Method: Sheep mesenteric tissue, from the distal sigmoid colon to the anus, was obtained from a local abattoir. The sheep tissue was delivered in a dry bag and stored at 4° C. until dissected. The bundle of sheep rectal vessels was dissected from its mesentery within four hours of arrival from the abattoir. The vascular bundle was then kept in the pre-oxygenated Krebs-Henseleit buffer solution at 4° C. until used (on the same day as a preferential method or on the following day after storage overnight). No experiments were conducted on tissue stored for more than 24 hours after dissection. The Krebs solution consisted of 118.4 mM NaCl, 4.7 mM KCl, 1.2 mM MgSO4, 1.2 mM KH2PO4, 1.25 mM CaCl2, 24.9 mM NaHCO3, and 11.1 mM glucose.
Before setting a wire myography experiment, the remaining loose connective tissue was meticulously removed from the rectal vessels. The internal diameter of sheep isolated rectal artery and vein was 450-650 μm and 500-1000 μm, respectively. Each 5-mm ring segment of the ‘clean’ vessels was then suspended between two 200-μm wire supports in an organ bath containing 20 ml Krebs-Henseleit buffer solution. The upper supporting wire was attached to an isometric force transducer, while the lower wire was fixed steadily to a clamped glass rod. The bath solution was maintained at 37° C., and continuously gassed with 95% O2 and 5% CO2. Isometric tension was continuously recorded using a PowerLab 4/25 via QUAD Bridge amplifier (ADInstruments, Inc, Australia).
After a 10-minute equilibration period, an initial tension of 8 gram weight (g wt) was gradually applied for an arterial segment and left to relax for 30 minutes. The final tension of SRA varied between 1.0 g wt and 2.8 g wt. For a venous segment, an initial tension of 1 g wt was applied and, 10 minutes later, the resting tension was finally re-adjusted to reach a tension of 0.5 g wt. Then the vein was left to relax for further 20 minutes. The final tension of SRV ranged from 0.08 to 0.25 g wt. Once the vascular segments were fully settled, the tissues were tested for contractile activity with 60 mM KCl on three occasions. The vascular contraction was allowed to reach maximum, which generally took about 1-4 minutes. Each KCl challenge was followed by two washouts of 37° C. Krebs solution and the tissues were allowed to rest for 20 minutes between the challenges. The maximum contraction (tension) produced by the third administration of 60 mM KCl was used as a reference contraction to which subsequent responses were compared. After the final (3rd) KCl challenge, the tissues were washed and left for 60 minutes before α-adrenoceptor agonist was administrated. To construct an agonist concentration-response curves (CRC), 0.3-0.4 log 10 increments of agonist solution was added e.g. at the agonist concentration of 100 nM, 200 nM, 500 nM, 1 μM, 2 μM, 5 μM, and so on. Each response was allowed to reach equilibrium or plateau before the next dose of agonist was added. The maximal response to the agonist was considered when no further increase in response occurred upon the addition of two or more consecutive doses of agonist.
In the case of the noradrenaline study, 10 μM cocaine was added into the organ bath 40 minutes prior to the administration of noradrenaline for inhibiting the uptake of noradrenaline by neural tissue within the vascular wall (re-uptake 1) (Westfall & Westfall, 2006 In Goodman & Gilman's the Pharmacological Basis of Therapeutics. eds Brunton, L. L., Lazo, J. S. & Paker, K. L. pp. 137-181. New York: McGraw Hill). Regarding KCl-induced vasoconstriction, the CRC was generated by the contractile response to 6 mM increments of KCl solution, starting from 0 mM to 60 mM.
Consecutive CRCs were generated to each agonist, separated by 60 minutes, and if there was no difference in the maximum response (Emax) and pEC50 (defined as the negative logarithm of the concentration required to produce 50% of the maximum response) then a paired CRC protocol was used throughout. […]

[4] = test system: porcine isolated tail artery
Method: U46619 was added to produce a contraction equivalent to 60% of KCl followed by sufficient to forskolin to causes a relaxation back to baseline. Cumulative concentration response curves to brimondine and phenylephrine were elicited in the presence and absence of the combination of U4/For. Responses have been expressed a percent of the contraction to 60 mM KCl and represent the mean of 5-6 separate observations.

[5] = molecular target: α2-adrenoceptor; settings: porcine vessels; cited from earlier work
[6] = molecular target: α2-adrenoceptor; assay: Saturation radioligand binding of [^3H]-RX821002 to sheep anorectal tissue membranes
Method: Fresh sheep anorectal tissues were dissected from whole buttock from sheep within four hours of slaughter. The buttocks were delivered in a dry bag and stored at 4° C. until dissected. The tissues used in this experiment included rectal smooth muscle (RSM), rectal mucosa (RM), anal mucosa (AM), internal anal sphincter (IAS), sheep rectal artery (SRA), sheep rectal vein (SRV), and the terminal branches of rectal vessels (TB). The dissected tissues were kept at −20° C. until used. Prior to starting an experiment, the tissue was removed from the freezer and allowed to defrost on ice. […] Non-specific binding was determined using an excessive amount of unlabelled specific receptor ligand. […] Three ml of scintillation fluid (PerkinElmer, UK) was subsequently added into each vial, and left at least 8 hours (preferably overnight) before processing for radioactivity measurement. The amount of radioactivity bound to the filters was measured using a liquid scintillation analyser (Tri-Carb 2100TR, PerkinElmer, UK). The radioactivity was reported as disintegrations per minute (dpm). […] Specific binding of the radioligand to the membranes was calculated by subtracting the non-specific binding from the total binding. Receptor density (Bmax) and ligand dissociation constant (Kd) were then calculated using the specific saturation binding curve of each experiment.

Compound: CN(C)C(N)=NCCC[C@H](N)C(=O)O [ADMA, Asymmetric dimethyl arginine]
inhibition of nitric oxide synthase [1]: inhibit nitric oxide synthase
effect on vasoconstrictor responses to phenylephrine [2]: enhance the vasoconstrictor responses to phenylephrine

Compound: Brc1c(NC2=NCCN2)ccc2nccnc12 [UK14304, brimonidine]
contractile response [3]: concentration-dependent contractions
veins with concentration-dependent contraction ([3]; the rest <10% of the response to 60 mM KCl): 6 out of 12
contractile responses in the presence of the combination of U46619 and forskolin [4]: enhanced

Kd ([6]; sheep rectal arteries, read-out: Kd of radioligand for α2-adrenoceptor): 1.42 nM
Kd ([6]; sheep rectal vein and terminal branches of sheep rectal vessels, read-out: Kd of α2-adrenoceptor): ~0.3 nM
Compound: COC1(C2=NCCN2)COc2ccccc2O1 (centres unmarked) [[^3H]-RX821002, 2-(2-methoxy-1,4-benzodioxan-2-yl)-2-imidazoline]
Kd [5]: 1.3 to 2.2 nM
